# What was measured:
# Assay in all cases: Bliss interaction score (quartile over a dose matrix) (fitness difference); higher = more antagonism (negative = synergy)
# B. subtilis 168 = tested on: B. subtilis 168
# Method in brief: (§1)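 Fitness is OD595 at stationary-phase entry relative to the plate's robust no-drug mean, capped at 1. Single-drug fitness was inferred from combinations. The Bliss score is observed minus product-expected fitness, summarised by quartiles over technical, biological and donor/recipient replicates.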
# S. aureus DSM 20231 = tested on: S. aureus DSM 20231
# Method in brief: as §1
# S. aureus Newman = tested on: S. aureus Newman
# Method in brief: as §1
# S. pneumoniae D39V = tested on: S. pneumoniae D39V
# Method in brief: as §1
# 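Further: first quartile when negative (synergy) and third quartile when positive (antagonism).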
SMILES,Bliss interaction score (B. subtilis 168),Bliss interaction score (S. aureus DSM 20231),Bliss interaction score (S. aureus Newman),Bliss interaction score (S. pneumoniae D39V),Bliss interaction score (B. subtilis 168; main component drawn),Bliss interaction score (S. aureus DSM 20231; main component drawn),Bliss interaction score (S. aureus Newman; main component drawn),Bliss interaction score (S. pneumoniae D39V; main component drawn)
O=C(O)c1cn(C2CC2)c2cc(N3CCNCC3)c(F)cc2c1=O [Ciprofloxacin] + CC[C@H]1OC(=O)[C@H](C)[C@@H](O[C@H]2C[C@@](C)(OC)[C@@H](O)[C@H](C)O2)[C@H](C)[C@@H](O[C@@H]2O[C@H](C)C[C@H](N(C)C)[C@H]2O)[C@](C)(O)C[C@@H](C)C(=O)[C@H](C)[C@@H](O)[C@]1(C)O [Erythromycin],0.211,0.0597,0.0474,0.065,–,–,–,–
COc1cccc2c1C(=O)c1c(O)c3c(c(O)c1C2=O)C[C@@](O)(C(=O)CO)C[C@@H]3O[C@H]1C[C@H](N)[C@H](O)[C@H](C)O1 [Doxorubicin] + CC[C@H]1OC(=O)[C@H](C)[C@@H](O[C@H]2C[C@@](C)(OC)[C@@H](O)[C@H](C)O2)[C@H](C)[C@@H](O[C@@H]2O[C@H](C)C[C@H](N(C)C)[C@H]2O)[C@](C)(O)C[C@@H](C)C(=O)[C@H](C)[C@@H](O)[C@]1(C)O [Erythromycin],0.0769,0.0463,0.0828,0.0705,–,–,–,–
C[C@@H]1O[C@@H]1P(=O)(O)O [Fosfomycin] + CC[C@H]1OC(=O)[C@H](C)C(=O)[C@H](C)[C@@H](O[C@@H]2O[C@H](C)C[C@H](N(C)C)[C@H]2O)[C@](C)(OC)C[C@@H](C)C(=O)[C@H](C)[C@H]2N(CCCCn3cnc(-c4cccnc4)c3)C(=O)O[C@]12C [Telithromycin],0.0824,0.0337,-0.0576,-0.0329,–,–,–,–
CC1(C)S[C@@H]2[C@H](NC(=O)Cc3ccccc3)C(=O)N2[C@H]1C(=O)O [PenicillinG] + CCN(CC)CCOC(=O)c1ccc(N)cc1 [Procaine],0.0367,-0.0657,0.0542,0.0857,–,–,–,–
CN(C)[C@@H]1C(O)=C(C(N)=O)C(=O)[C@@]2(O)C(O)=C3C(=O)c4c(O)ccc(Cl)c4[C@@](C)(O)[C@H]3C[C@@H]12 [Clortetracycline] + COc1cccc2c1C(=O)c1c(O)c3c(c(O)c1C2=O)C[C@@](O)(C(=O)CO)C[C@@H]3O[C@H]1C[C@H](N)[C@H](O)[C@H](C)O1 [Doxorubicin],0.0883,0.0615,-0.0472,-0.182,–,–,–,–
N#CC(C#N)=NNc1cccc(Cl)c1 [CCCP] + CCC(C)C1C(=O)NC(=C)C(=O)NC(C(=O)NC(CSCC(C(=O)N1)NC(=O)/C(=C/C)/NC(=O)C(C(C)CC)N)C(=O)NC2C(SCC(NC(=O)CNC(=O)C3CCCN3C2=O)C(=O)NC(CCCCN)C(=O)NC4C(SCC(NC(=O)CNC(=O)C(NC(=O)C(NC(=O)C(NC(=O)CNC4=O)C)CC(C)C)CCSC)C(=O)NC(CC(=O)N)C(=O)NC(CCSC)C(=O)NC(CCCCN)C(=O)NC5C(SCC6C(=O)NC(C(=O)NC(CSC(C(C(=O)N6)NC(=O)C(NC5=O)C)C)C(=O)NC(CO)C(=O)NC(C(C)CC)C(=O)NC(CC7=CN=CN7)C(=O)NC(C(C)C)C(=O)NC(=C)C(=O)NC(CCCCN)C(=O)O)CC8=CN=CN8)C)C)C)CC(C)C [Nisin],–,–,–,–,0.0522,0.0712,-0.0401,-0.0317
N#CC(C#N)=NNc1cccc(Cl)c1 [CCCP] + CN[C@H](CC(C)C)C(=O)N[C@H]1C(=O)N[C@@H](CC(N)=O)C(=O)N[C@H]2C(=O)N[C@H]3C(=O)N[C@H](C(=O)N[C@H](C(=O)O)c4cc(O)cc(O)c4-c4cc3ccc4O)[C@H](O)c3ccc(c(Cl)c3)Oc3cc2cc(c3O[C@@H]2O[C@H](CO)[C@@H](O)[C@H](O)[C@H]2O[C@H]2C[C@](C)(N)[C@H](O)[C@H](C)O2)Oc2ccc(cc2Cl)[C@H]1O [Vancomycin],0.0489,0.0309,-0.0614,0.0815,–,–,–,–
CC(=O)Oc1ccccc1C(=O)O [Acetylsalicylicacid] + CC[C@H]1OC(=O)[C@H](C)C(=O)[C@H](C)[C@@H](O[C@@H]2O[C@H](C)C[C@H](N(C)C)[C@H]2O)[C@](C)(OC)C[C@@H](C)C(=O)[C@H](C)[C@H]2N(CCCCn3cnc(-c4cccnc4)c3)C(=O)O[C@]12C [Telithromycin],0.205,0.0695,0.0539,-0.043,–,–,–,–
N#CC(C#N)=NNc1cccc(Cl)c1 [CCCP] + CN(C)c1cc(NC(=O)CNC(C)(C)C)c(O)c2c1C[C@H]1C[C@H]3[C@H](N(C)C)C(O)=C(C(N)=O)C(=O)[C@@]3(O)C(O)=C1C2=O [Tigecycline],-0.0512,0.0272,-0.0359,0.102,–,–,–,–
CO/N=C(\C(=O)N[C@@H]1C(=O)N2C(C(=O)O)=C(COC(N)=O)CS[C@H]12)c1ccco1 [Cefuroxime] + CO[C@@]12[C@H](COC(N)=O)C3=C(C(=O)C(C)=C(N)C3=O)N1C[C@@H]1N[C@@H]12 [MitomycinC],-0.211,-0.0745,-0.0903,0.0599,–,–,–,–
CN(C)[C@@H]1C(O)=C(C(N)=O)C(=O)[C@@]2(O)C(O)=C3C(=O)c4c(O)ccc(Cl)c4[C@@](C)(O)[C@H]3C[C@@H]12 [Clortetracycline] + Cc1cc(NS(=O)(=O)c2ccc(N)cc2)no1 [Sulfamethoxazol],0.0702,-0.058,0.0566,-0.0455,–,–,–,–
N#CC(C#N)=NNc1cccc(Cl)c1 [CCCP] + CCN(CC)CCOC(=O)c1ccc(N)cc1 [Procaine],0.0328,-0.0522,-0.0249,0.0668,–,–,–,–
CN(C)[C@@H]1C(O)=C(C(N)=O)C(=O)[C@@]2(O)C(O)=C3C(=O)c4c(O)ccc(Cl)c4[C@@](C)(O)[C@H]3C[C@@H]12 [Clortetracycline] + CO[C@H]1/C=C/O[C@@]2(C)Oc3c(C)c(O)c4c(O)c(c(/C=N/N5CCN(C)CC5)c(O)c4c3C2=O)NC(=O)/C(C)=C\C=C\[C@H](C)[C@H](O)[C@@H](C)[C@@H](O)[C@@H](C)[C@H](OC(C)=O)[C@@H]1C [Rifampicin],-0.26,-0.0529,0.0541,0.0664,–,–,–,–
N#CC(C#N)=NNc1cccc(Cl)c1 [CCCP] + CO[C@@H]1[C@@H](OC(N)=O)[C@@H](O)[C@H](Oc2ccc3c(O)c(NC(=O)c4ccc(O)c(CC=C(C)C)c4)c(=O)oc3c2C)OC1(C)C [Novobiocin],-0.144,0.0738,0.0377,0.164,–,–,–,–
Cc1ncc([N+](=O)[O-])n1CCO [Metronidazole] + Oc1cc(Cl)ccc1Oc1ccc(Cl)cc1Cl [Triclosan],0.0396,0.0778,0.0457,0.0696,–,–,–,–
CC1(C)S[C@@H]2[C@H](NC(=O)Cc3ccccc3)C(=O)N2[C@H]1C(=O)O [PenicillinG] + COc1ccc(C[C@H](N)C(=O)N[C@H]2[C@@H](O)[C@H](n3cnc4c(N(C)C)ncnc43)O[C@@H]2CO)cc1 [Puromycin],0.0536,-0.0369,0.0759,0.0834,–,–,–,–

SMILES,Bliss interaction score (B. subtilis 168),Bliss interaction score (S. aureus DSM 20231),Bliss interaction score (S. aureus Newman),Bliss interaction score (S. pneumoniae D39V),Bliss interaction score (B. subtilis 168; main component drawn),Bliss interaction score (S. aureus DSM 20231; main component drawn),Bliss interaction score (S. aureus Newman; main component drawn),Bliss interaction score (S. pneumoniae D39V; main component drawn)
CO/N=C(\C(=O)N[C@@H]1C(=O)N2C(C(=O)O)=C(COC(N)=O)CS[C@H]12)c1ccco1 [Cefuroxime] + CC[C@H]1OC(=O)[C@H](C)C(=O)[C@H](C)[C@@H](O[C@@H]2O[C@H](C)C[C@H](N(C)C)[C@H]2O)[C@](C)(OC)C[C@@H](C)C(=O)[C@H](C)[C@H]2N(CCCCn3cnc(-c4cccnc4)c3)C(=O)O[C@]12C [Telithromycin],0.0752,-0.0813,0.272,0.0493,–,–,–,–
C[C@@H]1O[C@@H]1P(=O)(O)O [Fosfomycin] + CC(=O)O[C@H]1C[C@@]2(C)[C@@H](C[C@@H](O)[C@H]3[C@@]4(C)CC[C@@H](O)[C@@H](C)[C@@H]4CC[C@@]32C)/C1=C(\CCC=C(C)C)C(=O)O [Fusidic acid],0.0895,0.0457,-0.0179,0.0774,–,–,–,–
CC(=O)Oc1ccccc1C(=O)O [Acetylsalicylicacid] + CO[C@H]1/C=C/O[C@@]2(C)Oc3c(C)c(O)c4c(O)c(c(/C=N/N5CCN(C)CC5)c(O)c4c3C2=O)NC(=O)/C(C)=C\C=C\[C@H](C)[C@H](O)[C@@H](C)[C@@H](O)[C@@H](C)[C@H](OC(C)=O)[C@@H]1C [Rifampicin],0.131,0.0617,0.036,0.0476,–,–,–,–
CN(C)[C@@H]1C(O)=C(C(N)=O)C(=O)[C@@]2(O)C(O)=C3C(=O)c4c(O)ccc(Cl)c4[C@@](C)(O)[C@H]3C[C@@H]12 [Clortetracycline] + C[C@H]1c2cccc(O)c2C(=O)C2=C(O)[C@]3(O)C(=O)C(C(N)=O)=C(O)[C@@H](N(C)C)[C@@H]3[C@@H](O)[C@@H]21 [Doxycycline],-0.0687,-0.0625,-0.0257,-0.0483,–,–,–,–
COc1cccc2c1C(=O)c1c(O)c3c(c(O)c1C2=O)C[C@@](O)(C(=O)CO)C[C@@H]3O[C@H]1C[C@H](N)[C@H](O)[C@H](C)O1 [Doxorubicin] + CO[C@@]12[C@H](COC(N)=O)C3=C(C(=O)C(C)=C(N)C3=O)N1C[C@@H]1N[C@@H]12 [MitomycinC],-0.269,-0.0314,0.122,-0.0709,–,–,–,–
CC(=O)Oc1ccccc1C(=O)O [Acetylsalicylicacid] + CC1(C)S[C@@H]2[C@H](NC(=O)[C@H](N)c3ccc(O)cc3)C(=O)N2[C@H]1C(=O)O [Amoxicillin],0.192,0.078,-0.0753,0.0431,–,–,–,–
CC(=O)Oc1ccccc1C(=O)O [Acetylsalicylicacid] + CN1C2=CC=CC=C2N=C3C1=CC=CC3=O [Pyocyanin],-0.0887,-0.0748,-0.0562,-0.0649,–,–,–,–
CC(=O)Oc1ccccc1C(=O)O [Acetylsalicylicacid] + CO[C@@]12[C@H](COC(N)=O)C3=C(C(=O)C(C)=C(N)C3=O)N1C[C@@H]1N[C@@H]12 [MitomycinC],-0.0648,0.0545,-0.0274,0.0652,–,–,–,–
CN(C)[C@@H]1C(O)=C(C(N)=O)C(=O)[C@@]2(O)C(O)=C3C(=O)c4c(O)ccc(Cl)c4[C@@](C)(O)[C@H]3C[C@@H]12 [Clortetracycline] + C[C@@H](O)[C@H]1C(=O)N2C(C(=O)O)=C(SCCNC=N)C[C@H]12 [Imipenem],0.194,0.039,0.0268,-0.0487,–,–,–,–
CN(C)[C@@H]1C(O)=C(C(N)=O)C(=O)[C@@]2(O)C(O)=C3C(=O)c4c(O)ccc(Cl)c4[C@@](C)(O)[C@H]3C[C@@H]12 [Clortetracycline] + CN(C)c1cc(NC(=O)CNC(C)(C)C)c(O)c2c1C[C@H]1C[C@H]3[C@H](N(C)C)C(O)=C(C(N)=O)C(=O)[C@@]3(O)C(O)=C1C2=O [Tigecycline],0.0768,-0.14,-0.0522,-0.0325,–,–,–,–
CN(C)[C@@H]1C(O)=C(C(N)=O)C(=O)[C@@]2(O)C(O)=C3C(=O)c4c(O)ccc(Cl)c4[C@@](C)(O)[C@H]3C[C@@H]12 [Clortetracycline] + Cn1nnc(-c2ccc(-c3ccc(N4C[C@H](CO)OC4=O)cc3F)cn2)n1 [Tedizolid],-0.105,-0.0502,-0.0562,0.0607,–,–,–,–
CC(=O)Oc1ccccc1C(=O)O [Acetylsalicylicacid] + CC[C@H]1OC(=O)[C@H](C)[C@@H](O[C@H]2C[C@@](C)(OC)[C@@H](O)[C@H](C)O2)[C@H](C)[C@@H](O[C@@H]2O[C@H](C)C[C@H](N(C)C)[C@H]2O)[C@](C)(O)C[C@@H](C)C(=O)[C@H](C)[C@@H](O)[C@]1(C)O [Erythromycin],0.184,0.1,0.144,0.0745,–,–,–,–
N#CC(C#N)=NNc1cccc(Cl)c1 [CCCP] + Clc1ccc(COC(Cn2ccnc2)c2ccc(Cl)cc2Cl)c(Cl)c1 [Miconazole],0.0582,-0.0382,-0.0554,-0.0431,–,–,–,–
CC(=O)Oc1ccccc1C(=O)O [Acetylsalicylicacid] + CN(C)C(=O)C(CCN1CCC(O)(c2ccc(Cl)cc2)CC1)(c1ccccc1)c1ccccc1 [Loperamide],0.0636,0.131,-0.0344,0.144,–,–,–,–
CC(=O)Oc1ccccc1C(=O)O [Acetylsalicylicacid] + C1=CC(=CC(=C1)Cl)NN=C(C#N)C#N [CCCP],-0.0436,-0.138,-0.0296,-0.161,–,–,–,–
